Data reported in the kinase profiling compilation of Christmann-Franck et al. (2016).

Experiments:
Assay in all cases: radiometric filter-binding kinase assay, Kinase HotSpot
Conditions in all cases: compound 0.5 µM; ATP 10 µM
PDPK1 (human) = PDPK1 (human) (UniProt O15530)
LRRK2 (human) = LRRK2 (human) (UniProt Q5S007)
PRKCB2 (human) = PRKCB2 (human) (UniProt P05771)
SGK2 (human) = SGK2 (human) (UniProt Q9HBY8)
SIK2 (human) = SIK2 (human) (UniProt Q9H0K1)
NEK11 (human) = NEK11 (human) (UniProt Q8NG66)
DYRK2 (human) = DYRK2 (human) (UniProt Q92630)
MAPK10 (human) = MAPK10 (human) (UniProt P53779)
FGFR2 (human) = FGFR2 (human) (UniProt P21802)
MAPK14 (human) = MAPK14 (human) (UniProt Q16539)
TEK (human) = TEK (human) (UniProt Q02763)
PAK4 (human) = PAK4 (human) (UniProt O96013)
SRPK2 (human) = SRPK2 (human) (UniProt P78362)
GRK5 (human) = GRK5 (human) (UniProt P34947)
CAMK1D (human) = CAMK1D (human) (UniProt Q8IU85)
WEE1 (human) = WEE1 (human) (UniProt P30291)
MST1R (human) = MST1R (human) (UniProt Q04912)
MAPK12 (human) = MAPK12 (human) (UniProt P53778)
TYRO3 (human) = TYRO3 (human) (UniProt Q06418)
PTK2 (human) = PTK2 (human) (UniProt Q05397)
NLK (human) = NLK (human) (UniProt Q9UBE8)
MELK (human) = MELK (human) (UniProt Q14680)
NEK2 (human) = NEK2 (human) (UniProt P51955)
YES1 (human) = YES1 (human) (UniProt P07947)
PKN1 (human) = PKN1 (human) (UniProt Q16512)
SRMS (human) = SRMS (human) (UniProt Q9H3Y6)
TAOK3 (human) = TAOK3 (human) (UniProt Q9H2K8)
WNK2 (human) = WNK2 (human) (UniProt Q9Y3S1)
HCK (human) = HCK (human) (UniProt P08631)
RPS6KA1 KD1 KD2 (human) = RPS6KA1 KD1 KD2 (human) (UniProt Q15418)
LTK (human) = LTK (human) (UniProt P29376)
CAMKK1 (human) = CAMKK1 (human) (UniProt Q8N5S9)
TGFBR1 (human) = TGFBR1 (human) (UniProt P36897)
CSNK1G2 (human) = CSNK1G2 (human) (UniProt P78368)
CDK4 CCND1 (human) = CDK4 CCND1 (human) (UniProt P24385+P11802)
CSNK2A1 (human) = CSNK2A1 (human) (UniProt P68400)
MAPK8 (human) = MAPK8 (human) (UniProt P45983)
CAMK4 (human) = CAMK4 (human) (UniProt Q16566)
RPS6KB2 (human) = RPS6KB2 (human) (UniProt Q9UBS0)
TSSK1B (human) = TSSK1B (human) (UniProt Q9BXA7)
MAP3K9 (human) = MAP3K9 (human) (UniProt P80192)
PRKCZ (human) = PRKCZ (human) (UniProt Q05513)

Sequence of PKN1 (human) (Q16512 whole entry, looked up): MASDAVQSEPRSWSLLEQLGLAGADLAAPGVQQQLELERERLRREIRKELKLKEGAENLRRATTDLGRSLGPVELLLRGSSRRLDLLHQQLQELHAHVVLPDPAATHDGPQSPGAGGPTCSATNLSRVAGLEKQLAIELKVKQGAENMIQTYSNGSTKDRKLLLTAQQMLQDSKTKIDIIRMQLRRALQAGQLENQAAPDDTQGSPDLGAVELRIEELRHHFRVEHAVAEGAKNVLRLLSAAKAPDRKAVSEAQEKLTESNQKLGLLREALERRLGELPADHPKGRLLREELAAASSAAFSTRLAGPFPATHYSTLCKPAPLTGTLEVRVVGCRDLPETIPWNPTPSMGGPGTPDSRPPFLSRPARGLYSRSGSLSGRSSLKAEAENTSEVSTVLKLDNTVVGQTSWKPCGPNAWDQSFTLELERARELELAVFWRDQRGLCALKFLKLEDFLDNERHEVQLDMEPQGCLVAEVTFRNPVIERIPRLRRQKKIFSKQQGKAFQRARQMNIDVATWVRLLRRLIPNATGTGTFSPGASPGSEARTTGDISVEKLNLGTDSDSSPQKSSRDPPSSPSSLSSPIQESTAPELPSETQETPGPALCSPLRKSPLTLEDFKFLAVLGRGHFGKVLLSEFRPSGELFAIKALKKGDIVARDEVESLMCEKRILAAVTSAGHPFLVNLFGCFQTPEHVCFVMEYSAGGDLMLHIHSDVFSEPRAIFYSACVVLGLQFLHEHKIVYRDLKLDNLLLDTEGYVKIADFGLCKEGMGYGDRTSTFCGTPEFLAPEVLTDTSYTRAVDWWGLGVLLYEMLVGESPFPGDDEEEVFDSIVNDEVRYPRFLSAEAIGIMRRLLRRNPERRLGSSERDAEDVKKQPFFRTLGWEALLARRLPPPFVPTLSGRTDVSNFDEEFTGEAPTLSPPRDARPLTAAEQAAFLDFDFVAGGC
Sequence of GRK5 (human) (P34947 whole entry, looked up): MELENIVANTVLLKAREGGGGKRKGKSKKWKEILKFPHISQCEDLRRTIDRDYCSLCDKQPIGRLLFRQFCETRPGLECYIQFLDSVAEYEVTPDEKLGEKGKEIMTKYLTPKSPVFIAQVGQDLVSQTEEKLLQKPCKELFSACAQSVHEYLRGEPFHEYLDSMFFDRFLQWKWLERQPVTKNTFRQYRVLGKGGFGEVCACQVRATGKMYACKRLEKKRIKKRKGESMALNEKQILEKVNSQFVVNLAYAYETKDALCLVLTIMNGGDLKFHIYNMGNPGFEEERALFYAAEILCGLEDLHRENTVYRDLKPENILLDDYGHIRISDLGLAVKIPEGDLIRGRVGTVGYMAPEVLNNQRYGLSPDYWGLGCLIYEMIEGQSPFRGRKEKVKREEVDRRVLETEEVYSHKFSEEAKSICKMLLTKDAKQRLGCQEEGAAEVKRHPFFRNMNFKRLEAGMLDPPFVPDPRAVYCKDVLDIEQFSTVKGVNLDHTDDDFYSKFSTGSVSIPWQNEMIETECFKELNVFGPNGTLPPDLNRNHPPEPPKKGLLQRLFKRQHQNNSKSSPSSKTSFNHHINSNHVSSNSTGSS
Sequence of TEK (human) (Q02763 whole entry, looked up): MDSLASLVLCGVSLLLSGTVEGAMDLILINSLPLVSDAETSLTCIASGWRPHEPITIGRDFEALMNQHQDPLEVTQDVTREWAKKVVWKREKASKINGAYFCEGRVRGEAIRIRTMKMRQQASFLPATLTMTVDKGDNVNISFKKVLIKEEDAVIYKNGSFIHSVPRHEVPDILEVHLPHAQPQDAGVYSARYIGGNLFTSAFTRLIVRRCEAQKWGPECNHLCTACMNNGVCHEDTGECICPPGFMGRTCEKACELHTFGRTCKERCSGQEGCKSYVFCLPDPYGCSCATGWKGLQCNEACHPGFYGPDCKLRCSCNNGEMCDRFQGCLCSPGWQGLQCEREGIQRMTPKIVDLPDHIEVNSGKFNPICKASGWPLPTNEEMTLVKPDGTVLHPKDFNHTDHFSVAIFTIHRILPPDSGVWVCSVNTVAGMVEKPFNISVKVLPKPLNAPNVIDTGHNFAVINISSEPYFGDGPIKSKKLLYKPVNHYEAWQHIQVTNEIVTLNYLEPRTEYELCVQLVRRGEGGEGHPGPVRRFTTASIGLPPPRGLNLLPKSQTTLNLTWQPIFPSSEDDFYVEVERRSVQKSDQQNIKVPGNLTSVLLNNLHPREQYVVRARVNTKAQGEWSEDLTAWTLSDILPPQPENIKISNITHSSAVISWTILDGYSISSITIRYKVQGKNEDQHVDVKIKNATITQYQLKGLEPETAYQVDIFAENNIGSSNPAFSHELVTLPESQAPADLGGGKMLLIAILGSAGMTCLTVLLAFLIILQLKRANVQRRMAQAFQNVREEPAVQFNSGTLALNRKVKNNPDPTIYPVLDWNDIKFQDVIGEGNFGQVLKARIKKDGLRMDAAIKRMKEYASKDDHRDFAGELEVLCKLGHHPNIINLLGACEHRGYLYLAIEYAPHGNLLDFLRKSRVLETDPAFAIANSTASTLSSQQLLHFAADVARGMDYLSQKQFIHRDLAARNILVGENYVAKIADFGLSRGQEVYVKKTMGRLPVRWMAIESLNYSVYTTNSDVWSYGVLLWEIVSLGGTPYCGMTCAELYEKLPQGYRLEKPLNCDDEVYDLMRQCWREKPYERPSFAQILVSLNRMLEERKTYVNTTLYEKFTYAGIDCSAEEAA
Sequence of SRMS (human) (Q9H3Y6 whole entry, looked up): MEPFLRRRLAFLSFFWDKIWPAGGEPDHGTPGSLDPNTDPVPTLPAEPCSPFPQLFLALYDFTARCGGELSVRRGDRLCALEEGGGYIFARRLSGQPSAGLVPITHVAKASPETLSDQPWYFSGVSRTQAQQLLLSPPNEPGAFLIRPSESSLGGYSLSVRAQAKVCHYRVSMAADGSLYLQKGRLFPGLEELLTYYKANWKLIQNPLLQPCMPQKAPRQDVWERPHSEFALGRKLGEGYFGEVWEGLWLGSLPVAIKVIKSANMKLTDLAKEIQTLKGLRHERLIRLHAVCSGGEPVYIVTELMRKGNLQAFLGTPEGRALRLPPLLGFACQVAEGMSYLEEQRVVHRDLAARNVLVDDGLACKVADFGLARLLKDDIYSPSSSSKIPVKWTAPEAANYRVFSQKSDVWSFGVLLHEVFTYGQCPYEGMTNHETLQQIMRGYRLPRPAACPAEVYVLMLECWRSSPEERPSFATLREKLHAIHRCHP
Sequence of CAMK4 (human) (Q16566 whole entry, looked up): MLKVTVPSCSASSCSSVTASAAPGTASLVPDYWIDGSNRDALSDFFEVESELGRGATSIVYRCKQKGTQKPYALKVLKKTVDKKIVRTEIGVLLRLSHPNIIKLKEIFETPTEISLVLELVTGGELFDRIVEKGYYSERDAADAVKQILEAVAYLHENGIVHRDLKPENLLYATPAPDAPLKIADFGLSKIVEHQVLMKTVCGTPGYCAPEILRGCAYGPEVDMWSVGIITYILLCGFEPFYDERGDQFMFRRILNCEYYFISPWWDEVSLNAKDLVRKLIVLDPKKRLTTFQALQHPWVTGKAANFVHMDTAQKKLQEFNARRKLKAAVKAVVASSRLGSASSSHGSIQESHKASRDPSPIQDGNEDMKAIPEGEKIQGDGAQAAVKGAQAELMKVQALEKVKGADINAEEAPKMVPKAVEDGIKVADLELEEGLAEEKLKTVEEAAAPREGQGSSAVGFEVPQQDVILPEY
Sequence of TAOK3 (human) (Q9H2K8 whole entry, looked up): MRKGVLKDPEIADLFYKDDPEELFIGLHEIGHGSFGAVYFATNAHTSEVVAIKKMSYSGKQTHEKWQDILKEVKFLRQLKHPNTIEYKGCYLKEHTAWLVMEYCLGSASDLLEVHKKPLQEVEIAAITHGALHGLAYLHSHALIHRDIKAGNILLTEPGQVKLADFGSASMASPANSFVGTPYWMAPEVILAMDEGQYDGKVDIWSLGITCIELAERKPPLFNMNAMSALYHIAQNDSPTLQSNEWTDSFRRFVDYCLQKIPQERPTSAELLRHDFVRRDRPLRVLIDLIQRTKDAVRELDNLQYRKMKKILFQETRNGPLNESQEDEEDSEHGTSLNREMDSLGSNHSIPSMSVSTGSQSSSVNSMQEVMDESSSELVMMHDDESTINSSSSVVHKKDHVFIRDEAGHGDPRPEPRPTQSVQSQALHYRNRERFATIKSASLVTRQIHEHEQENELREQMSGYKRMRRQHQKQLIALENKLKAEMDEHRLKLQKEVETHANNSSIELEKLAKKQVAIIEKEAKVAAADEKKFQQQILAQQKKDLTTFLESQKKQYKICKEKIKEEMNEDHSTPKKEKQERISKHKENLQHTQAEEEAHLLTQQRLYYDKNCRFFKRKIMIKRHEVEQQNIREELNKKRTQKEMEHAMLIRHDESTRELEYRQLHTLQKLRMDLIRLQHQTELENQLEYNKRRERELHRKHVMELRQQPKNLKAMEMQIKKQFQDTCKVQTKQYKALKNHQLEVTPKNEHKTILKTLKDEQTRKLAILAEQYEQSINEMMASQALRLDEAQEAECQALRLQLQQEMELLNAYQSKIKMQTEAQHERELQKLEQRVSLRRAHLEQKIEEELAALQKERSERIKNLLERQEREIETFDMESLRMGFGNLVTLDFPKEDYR
Sequence of PDPK1 (human) (O15530 whole entry, looked up): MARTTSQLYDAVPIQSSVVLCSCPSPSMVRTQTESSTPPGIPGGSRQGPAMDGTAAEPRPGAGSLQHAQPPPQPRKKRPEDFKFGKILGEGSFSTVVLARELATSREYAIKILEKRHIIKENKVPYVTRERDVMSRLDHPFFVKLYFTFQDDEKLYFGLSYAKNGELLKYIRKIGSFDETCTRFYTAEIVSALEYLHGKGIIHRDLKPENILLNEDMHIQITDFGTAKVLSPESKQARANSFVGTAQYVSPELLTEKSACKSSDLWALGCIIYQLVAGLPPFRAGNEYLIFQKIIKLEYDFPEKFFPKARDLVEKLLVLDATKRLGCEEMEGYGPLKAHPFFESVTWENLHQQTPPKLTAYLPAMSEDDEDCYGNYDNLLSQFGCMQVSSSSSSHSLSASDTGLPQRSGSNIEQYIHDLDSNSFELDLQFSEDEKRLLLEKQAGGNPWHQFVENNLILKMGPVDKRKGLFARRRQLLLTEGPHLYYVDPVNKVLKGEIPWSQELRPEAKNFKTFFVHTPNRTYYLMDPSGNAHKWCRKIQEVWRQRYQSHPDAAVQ

`O=c1cc(N2CCNCC2)oc2c(-c3ccccc3)cccc12` was tested, and the residual activity (PDPK1 (human)) was 110%, the residual activity (LRRK2 (human)) was 101% and the residual activity (PRKCB2 (human)) was 101%. For the same compound, the residual activity (SGK2 (human)) was 102%, the residual activity (SIK2 (human)) was 110% and the residual activity (NEK11 (human)) was 97.9%. For the same compound, the residual activity (DYRK2 (human)) was 96.8%, the residual activity (MAPK10 (human)) was 85% and the residual activity (FGFR2 (human)) was 98.9%. It also gave a residual activity (MAPK14 (human)) of 82.8%, a residual activity (TEK (human)) of 95% and a residual activity (PAK4 (human)) of 81.1%. For the same compound, the residual activity (SRPK2 (human)) was 105%, the residual activity (GRK5 (human)) was 103% and the residual activity (CAMK1D (human)) was 82%. The residual activity (WEE1 (human)) was 83.4%, the residual activity (MST1R (human)) was 96% and the residual activity (MAPK12 (human)) was 92%. It also gave a residual activity (TYRO3 (human)) of 107%, a residual activity (PTK2 (human)) of 99% and a residual activity (NLK (human)) of 98.8%. For the same compound, the residual activity (MELK (human)) was 94.5%, the residual activity (NEK2 (human)) was 86% and the residual activity (YES1 (human)) was 96.4%. The residual activity (PKN1 (human)) was 99.6%, the residual activity (SRMS (human)) was 104% and the residual activity (TAOK3 (human)) was 92.8%. For the same compound, the residual activity (WNK2 (human)) was 111%, the residual activity (HCK (human)) was 93.7% and the residual activity (RPS6KA1 KD1 KD2 (human)) was 104%. The residual activity (LTK (human)) was 96.9%, the residual activity (CAMKK1 (human)) was 105% and the residual activity (TGFBR1 (human)) was 97.3%. For the same compound, the residual activity (CSNK1G2 (human)) was 101%, the residual activity (CDK4 CCND1 (human)) was 115% and the residual activity (CSNK2A1 (human)) was 89.9%. It also gave a residual activity (MAPK8 (human)) of 89.3%, a residual activity (CAMK4 (human)) of 104% and a residual activity (RPS6KB2 (human)) of 91%. For the same compound, the residual activity (TSSK1B (human)) was 89.5%, the residual activity (MAP3K9 (human)) was 101% and the residual activity (PRKCZ (human)) was 116%.

`Cc1ccc(NC(=O)c2ccc(CN3CCN(C)CC3)cc2)cc1Nc1nc(-c2cccnc2)cs1` gave a residual activity (PDPK1 (human)) of 101%, a residual activity (LRRK2 (human)) of 107% and a residual activity (PRKCB2 (human)) of 95.9%. For the same compound, the residual activity (SGK2 (human)) was 106%, the residual activity (SIK2 (human)) was 99.7% and the residual activity (NEK11 (human)) was 95.1%. It also gave a residual activity (DYRK2 (human)) of 109%, a residual activity (MAPK10 (human)) of 94.2% and a residual activity (FGFR2 (human)) of 100%. It also gave a residual activity (MAPK14 (human)) of 98.1%, a residual activity (TEK (human)) of 97.2% and a residual activity (PAK4 (human)) of 103%. The residual activity (SRPK2 (human)) was 101%, the residual activity (GRK5 (human)) was 106% and the residual activity (CAMK1D (human)) was 110%. The residual activity (WEE1 (human)) was 97%, the residual activity (MST1R (human)) was 104% and the residual activity (MAPK12 (human)) was 96.9%. It also gave a residual activity (TYRO3 (human)) of 98.9%, a residual activity (PTK2 (human)) of 98.6% and a residual activity (NLK (human)) of 106%. For the same compound, the residual activity (MELK (human)) was 84.8%, the residual activity (NEK2 (human)) was 96.7% and the residual activity (YES1 (human)) was 50.7%. For the same compound, the residual activity (PKN1 (human)) was 99.3%, the residual activity (SRMS (human)) was 92.9% and the residual activity (TAOK3 (human)) was 95.4%. It also gave a residual activity (WNK2 (human)) of 99.2%, a residual activity (HCK (human)) of 55.7% and a residual activity (RPS6KA1 KD1 KD2 (human)) of 97.2%. The residual activity (LTK (human)) was 102%, the residual activity (CAMKK1 (human)) was 97.6% and the residual activity (TGFBR1 (human)) was 98.5%. It also gave a residual activity (CSNK1G2 (human)) of 92.9%, a residual activity (CDK4 CCND1 (human)) of 94.1% and a residual activity (CSNK2A1 (human)) of 99.2%. It also gave a residual activity (MAPK8 (human)) of 107%, a residual activity (CAMK4 (human)) of 98.6% and a residual activity (RPS6KB2 (human)) of 101%. For the same compound, the residual activity (TSSK1B (human)) was 100%, the residual activity (MAP3K9 (human)) was 104% and the residual activity (PRKCZ (human)) was 103%.
